In US20260258039A1, “AROMATIC COMPOUND, METHOD FOR PREPARING SAME, AND USE THEREOF IN PREPARATION OF ESTROGEN RECEPTOR DEGRADER” (Hinova Pharmaceuticals Inc., priority 2022, published 2026):
Where two headings read alike, the source gives them in different places.

Columns and labels:
[1] = target: T1, ER (Homo sapiens, UniProt P03372); test: Degradation activities on ER (ELISA) in T47D breast cancer cells; format: cell-based; conditions: T47D cells, 24 h, ELISA; for DC50: concentration required to degrade 50% of the target protein; for Dmax: maximum percentage of target protein degraded
T1 construct: T47D breast cancer cells were subcultured in cell culture medium; endogenous in cells; host or cells: T47D breast cancer cells
T1 sequence (P03372 1-595): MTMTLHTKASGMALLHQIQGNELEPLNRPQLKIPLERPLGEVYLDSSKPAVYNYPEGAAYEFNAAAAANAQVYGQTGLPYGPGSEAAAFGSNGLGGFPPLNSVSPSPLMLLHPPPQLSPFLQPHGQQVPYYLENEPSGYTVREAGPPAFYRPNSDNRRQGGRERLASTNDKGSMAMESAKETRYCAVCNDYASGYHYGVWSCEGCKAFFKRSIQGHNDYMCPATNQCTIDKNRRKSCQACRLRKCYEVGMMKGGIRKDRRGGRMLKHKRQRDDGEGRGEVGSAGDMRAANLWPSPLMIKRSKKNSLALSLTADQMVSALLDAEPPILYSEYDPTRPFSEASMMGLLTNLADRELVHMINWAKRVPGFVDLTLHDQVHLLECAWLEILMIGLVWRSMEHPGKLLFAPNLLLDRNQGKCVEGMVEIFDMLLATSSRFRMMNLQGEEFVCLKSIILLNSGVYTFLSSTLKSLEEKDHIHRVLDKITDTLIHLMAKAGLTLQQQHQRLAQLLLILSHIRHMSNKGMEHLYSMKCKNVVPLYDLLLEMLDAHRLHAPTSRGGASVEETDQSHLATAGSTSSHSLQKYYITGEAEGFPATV
Outline: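 T47D cells were seeded at 2.5×10^4/well, grown 3 days at 37 °C, 5% CO2, then exposed 24 h to compound at 100, 25, 6.25, 1.56, 0.39 and […] nM (final). ER protein was quantified by sandwich ELISA with HRP/TMB read at 450 nm, and DC50 and Dmax came from dose-response fits.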

[2] = target: T1, ER; test: Degradation activities on ER (Western blotting) in T47D breast cancer cells; format: cell-based; conditions: 24 h, Western blot
Outline: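 T47D cells seeded 2.5×10^5/well, grown overnight, then treated 24 hours with compound (0.1% DMSO) in duplicate. ERα level measured by Western blot of 30 μg lysate protein, with GAPDH as loading control and ECL chemiluminescence detection.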

[3] = test system: MCF-7 breast cancer cells; test: Inhibition of proliferation of MCF-7 breast cancer cells (agarose culture, CellTiter-Glo 3D); format: cell-based; conditions: MCF-7 cells, 15 days of cultivation, read-out: IC50
[4] = Pharmacokinetics in female ICR mice; conditions: female, ICR, mouse, plasma, po, 3 mg/kg; for AUC(0-inf): AUCinf (μg*h/mL), oral administration 3 mg/kg, female ICR mice
Method: Pharmacokinetic experimental steps: A suitable amount of compound to be administered was weighed, and after the final volume required was calculated, a drug solution with corresponding concentration was prepared using the medium (DMSO/HS-15/Tween 80/D5W (5:5:2:88, v/v/v/v)). For intravenous administration, each drug was administered to 9 animals (female ICR mice, provided by Chengdu Dossy Experimental Animal Co., Ltd.) at a dose of 1 mg/kg (drug volume of 10 mL/kg, drug concentration of 0.1 mg/mL). After administration, samples were alternately collected from three animals of each group at time points of 5 min, 15 min, 30 min, 1 h, 2 h, 4 h, 8 h, 12 h, and 24 h. For oral gavage, each drug was administered to 9 animals (female ICR mice) at a dose of 3 mg/kg (drug volume of 10 mL/kg, drug concentration of 0.3 mg/mL). After administration, samples are alternately collected from three animals of each group at time points of 15 min, 30 min, 1 h, 2 h, 4 h, 6 h, 8 h, 12 h, and 24 h. The samples were anticoagulated with EDTA-K2 and centrifuged at 4° C. for 5 min to separate the plasma. The plasma samples were vortexed and mixed. A suitable amount of internal standard working solution was added to the 96-well plate containing samples used for plotting standard curve, samples used for quality control, or samples to be tested; A suitable amount of methanol was added to the blank sample, vortexed and mixed thoroughly, and then centrifuged for 15 min before the supernatant was collected and injected to LC-MS/MS for analysis. The plasma concentration at each time point was used to calculate the main pharmacokinetic parameters using the Winnolin 8.3 non-compartmental model.

[5] = test system: MCF-7 breast cancer cells; test: Pharmacodynamic experiment in mouse models of human breast cancer (MCF-7 tumors); format: in vivo, NOD/SCID female mice; conditions: dose 10 mg/kg, once-daily oral gavage
Method: MCF-7 breast cancer cells were cultured in MEM medium containing 10% FBS, 0.01 mM NEAA, and 10 µg/mL insulin. MCF-7 cells in the exponential growth phase were collected and resuspended in PBS to a suitable concentration for subcutaneous injection into mice. The experimental animals were NOD/SCID female mice (purchased from GemPharmatech Co. Itd, Jiangsu). Before inoculation of tumor cells, a 0.36 mg/60-day slow-release estrogen tablet (17β-estradiol, Innovative Research of America, Sarasota, Florida, USA) was subcutaneously implanted on the right side of the back of the experimental animals. The day after estrogen tablet implantation, 2×10^7 MCF-7 cells were inoculated into the right mammary fatty pad of the experimental mice, wherein the cells were resuspended in PBS and Matrigel (1:1) (0.2 mL/mouse). The tumor growth was regularly observed.
When the tumors in the tumor-bearing mice grew to an average volume of approximately 245.56 mm^3, they were randomly grouped for administration based on tumor size. Grouping was performed using StudyDirector™ (version 3.1.399.19, supplier Studylog System, Inc., S. San Francisco, CA, USA). […]
After starting drug administration, the body weight and tumor size of mice were measured twice a week. […] The raw data were directly imported into the software after being measured using a balance and vernier caliper. […]

Compound	DC50 [1] [µM]	Dmax [1]	Percentage reduction of ER ([2]; compound concentration 1 nM) [%]	IC50 [3] [µM]	half-life [4] [h]	AUC(0-inf) [4] [µg·h/mL]	Dmax ([1]; read-out: Dmax) [%]	Percentage reduction of ER ([2]; compound concentration 10 nM) [%]	IC50 ([3]; Homo sapiens, MCF7, 360 h) [µM]	TGI (tumor growth inhibition) ([5]; day 28) [%]	average tumor volume ([5]; end of experiment (day 28)) [mm^3]
O=C1CCC(N2Cc3cc(N4CC5(CCN(CC6CCN(c7ccc([C@@H]8c9ccc(O)cc9OC[C@@H]8c8ccccc8F)cc7)CC6)CC5)C4)ccc3C2=O)C(=O)N1 (stereo partly drawn) [Example 89, 3-(5-(7-((1-(4-((3S, 4R)-3-(2-fluorophenyl)-7-hydroxychroman-4-yl)phenyl)piperidin-4-yl)methyl)-2,7-diazaspiro[3.5]nonane-2-yl)-1-oxoisoinodolin-2-yl)piperidin-2,6-dione]	< 0.01	B (B: 75-50%)	52	< 0.01	> 3.5	1.4 to 2.5	–	–	–	–	–
O=C1CCC(N2Cc3cc(N4CC5(CCN(CC6CCN(c7ccc([C@@H]8c9ccc(O)cc9OC[C@@H]8c8c(F)cccc8F)cc7)CC6)CC5)C4)ccc3C2=O)C(=O)N1 (stereo partly drawn) [Example 63, 3-(5-(7-((1-(4-(3-(2,6-difluorophenyl)-7-hydroxyl-chroman-4-yl)phenyl)piperidin-4-yl)methyl)-2,7-diazaspiro[3.5]nonane-2-yl)-1-oxoisoinodolin-2-yl)piperidin-2,6-dione]	–	–	–	–	> 3.5	> 2.5	50 to 75	51	< 0.01	–	–
O=C1CCC(N2Cc3cc(N4CCN(CC5CCN(c6ccc([C@@H]7c8ccc(O)cc8CC[C@@H]7c7ccccc7)cc6)CC5)CC4)ccc3C2=O)C(=O)N1 (stereo partly drawn) [Control compound X, reference compound]	–	–	–	–	2.3	1.3	–	–	–	29	362
O=C1CCC(N2Cc3cc(N4CC5(CCN(CC6CCN(c7c(F)cc([C@@H]8c9ccc(O)cc9OC[C@@H]8c8ccccc8F)cc7F)CC6)CC5)C4)ccc3C2=O)C(=O)N1 (stereo partly drawn) [Example 32, 3-(5-(7-((1-(2,6-difluoro-4-((3,4-cis)-3-(2-fluorophenyl)-7-hydroxybenzodihydropyran-4-yl)phenyl)piperidin-4-yl)methyl)-2,7-diazaspiro[3.5]nonane-2-yl)-1-oxoisoinodolin-2-yl)piperidin-2,6-dione]	< 0.01	–	–	–	> 3.5	1.4 to 2.5	50 to 75	81	< 0.01	–	–
